The text below walks through data of patent US11365194B2, “Analgesic drug using PAC1 receptor antagonistic drug” (KAGOSHIMA UNIVERSITY, priority 2017, dated 2022).

The target in experiment [1] is T1, PAC1 receptor (Homo sapiens, UniProt P41586).
T1 sequence (P41586 21-468): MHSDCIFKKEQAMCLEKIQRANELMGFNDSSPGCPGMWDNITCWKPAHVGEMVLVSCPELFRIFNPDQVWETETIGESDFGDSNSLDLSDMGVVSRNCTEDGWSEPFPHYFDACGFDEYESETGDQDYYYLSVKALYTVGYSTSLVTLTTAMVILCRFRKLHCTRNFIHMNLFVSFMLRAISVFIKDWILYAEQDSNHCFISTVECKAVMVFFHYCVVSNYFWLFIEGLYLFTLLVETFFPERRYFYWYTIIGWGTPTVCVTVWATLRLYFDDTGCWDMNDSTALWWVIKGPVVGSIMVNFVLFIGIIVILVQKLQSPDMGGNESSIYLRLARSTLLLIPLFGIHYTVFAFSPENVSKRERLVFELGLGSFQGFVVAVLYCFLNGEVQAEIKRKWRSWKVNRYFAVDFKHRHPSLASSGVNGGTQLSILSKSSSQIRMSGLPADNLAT
Particulars: Non Patent Literature 3; cited from earlier work.

The subject of experiment [2] is mechanical allodynia induced by spinal nerve injury. Description: Spinal nerve ligation (SNL) model, i.t. administration on 14th day, mechanical allodynia. The class given is in vivo, mouse. Particulars: 100 pmol i.t. on 14th day after operation. As to the method:
(§1) Male ddY mice (6 to 12 weeks old) were used, and the threshold to a mechanical stimulus was evaluated by the vonFrey test. Specifically, the 50% withdrawal reflex threshold (Threshold) was calculated in accordance with the method of Chaplan et al. (Chaplan et al., J. Neurosci. Meth. 53, 55-63, 1994). Each compound was dissolved in 99.7% DMSO, and then the resulting solution was diluted with an artificial cerebrospinal fluid for preparation (final concentration of DMSO was 0.2%).
Spinal nerve ligation (SNL) models in which the fourth lumbar cord spinal nerves of male ddY (6 to 12 weeks old) were ligated with silk thread were used. The i.t. administration of a solvent (VEH: 10% DMSO-containing saline), PA-8, the compound 2j or the compound 2o (FIG. 9A), or PA-9 or the compound 3d (FIG. 9B) was performed on the 14th day after the operation. The method of causing a mechanical stimulus is the same as that of Example 5, and data were acquired for 24 hours after i.t. administration over time.

Experiment [3] deals with pain-like behavior induced by formalin. In words: Pain-like behavior induced by formalin. The class given is in vivo, mouse. Particulars: 0.1 to 10 nmol i.t. As for the experimental part: The first phase is direct action of formalin on sensory nerves (to around 10 minutes after formalin administration). In the second phase (from around 10 minutes to 60 minutes after formalin administration), hypersensitization formed in spinal dorsal horn cells during the first phase (a type of plastic phenomenon in the nervous system also called central sensitization) is a main cause, and inflammatory reaction at the site of formalin administration contributes importantly.

For experiment [4], the target named is T2, mouse VPAC1 receptor-expressing CHO cell (VPAC1/CHO cell) (Mus musculus, UniProt P97751).
T2 construct: expressed in transfected cells; host or cells: CHO cells
T2 sequence (P97751 31-459): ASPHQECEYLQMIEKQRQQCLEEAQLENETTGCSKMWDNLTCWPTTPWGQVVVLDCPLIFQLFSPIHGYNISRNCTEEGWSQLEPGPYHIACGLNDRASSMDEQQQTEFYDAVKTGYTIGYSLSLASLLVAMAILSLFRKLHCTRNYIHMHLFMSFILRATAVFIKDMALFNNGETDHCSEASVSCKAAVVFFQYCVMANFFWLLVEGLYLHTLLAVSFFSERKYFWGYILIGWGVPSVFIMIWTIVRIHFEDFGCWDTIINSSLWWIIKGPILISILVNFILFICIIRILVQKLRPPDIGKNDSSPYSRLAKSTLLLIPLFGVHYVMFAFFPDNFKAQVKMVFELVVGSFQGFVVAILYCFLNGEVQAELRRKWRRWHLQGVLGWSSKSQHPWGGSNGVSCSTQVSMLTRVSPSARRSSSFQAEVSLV
Description: CREB phosphorylation by PACAP stimulus, Western blot, VPAC1/CHO cell. The class given is cell-based. Particulars: compound 10 μM to 10 nM. As for the experimental part:
The effect of each compound on the phosphorylation of CREB (cAMP-responsive element-binding protein) produced by a PACAP stimulus was examined by Western blot analysis using an anti-phosphorylated CREB (pCREB) antibody with a mouse PAC receptor-expressing CHO cell (PAC1/CHO cell) and a mouse VPAC1 receptor-expressing CHO cell (VPAC1/CHO cell).
Specifically, treatment with a compound (PA-8, PA-9, compounds 2j, 20 and 3d) at 10 μM to 10 nM or a solvent therefor (VEH: 0.1% DMSO-containing phosphate buffer solution) was performed for 30 minutes, 1 nM PACAP was then added, and protein was recovered within 30 minutes after a PACAP stimulus.

The test system of experiment [5] is cold allodynia induced by oxaliplatin. In words: Cold allodynia induced by oxaliplatin, drug on fourth day after oxaliplatin (acetone test). Particulars: 10 mg/kg, single oral administration, fourth day after oxaliplatin. The format is in vivo, mouse. As to the method:
Oxaliplatin was dissolved in 5% glucose-containing saline and intraperitoneally administered at a dose of 2 mg/kg. A drug was administered on the fourth day after oxaliplatin administration. Male ddY mice (6 to 12 weeks old) were used. The axis of ordinates is the duration of the behavior of licking and paw waving after the application of an acetone drop (10 L) to the footpad of a hind paw.

Experiment [6] has as its system spontaneous pain-like behavior induced by PACAP intrathecal administration. In words: Spontaneous pain-like behavior induced by PACAP intrathecal administration. The format is in vivo, mouse. Particulars: simultaneous i.t. with PACAP (100 pmol), counted for 30 minutes. As for the experimental part: When PACAP (100 pmol/5 L) is intrathecally administered to a mouse in a single dose (single i.t. injection), spontaneous pain-like behavior in which the mouse licks or bites the rear half of the body occurs about 5 minutes after the administration (and continues for several hours) (Ohnou et al. J. Pharmacol. Sci. 130, 194-203, 2016). […] Male ddY mice (6 to 12 weeks old) were used, and the behaviors were taken on video. The number of times of spontaneous pain-like behaviors for 30 minutes after the administration was counted.

The conditions of experiment [7]: Non Patent Literature 4; cited from earlier work.
Experiment [8] deals with mechanical allodynia induced by PACAP intrathecal administration. In words: Mechanical allodynia induced by PACAP intrathecal administration (von Frey test). The class given is in vivo, mouse. Particulars: 10 or 100 pmol, simultaneous i.t.; FIGS. 5A and B. As for the experimental part:
When single i.t. administration of PACAP (100 pmol/5 L) to mouse was performed, mechanical stimulus sensitive phenomenon (mechanical allodynia) occurred over a long period of time (for at least three months after the administration) (Non Patent Literature 1). […] The mechanical sensitive phenomenon induced by PACAP was not suppressed in an example in which a solvent (VEH: 0.2% DMSO-containing artificial cerebrospinal fluid) was used instead of the compounds.
as §1

In the case of `C=CCOc1ccc(C2CC(=O)Nc3nc(N)[nH]c(=O)c32)cc1OC` (stereo not shown) [PA-8, reference compound], in experiment [1], the “PAC1 receptor antagonistic action” value is listed as “have PAC1 receptor antagonistic action”. Moreover, the anti-mechanical allodynia effect entry in experiment [2] is “suppressed the onset of mechanical allodynia significantly”. Besides, in experiment [3], the “effect on first phase reaction” value was “did not affect the first phase reaction” and the “effect on second phase reaction” value is recorded as “suppressed the second phase reaction significantly depending on the concentration”. Further, the “suppression of CREB phosphorylation by PACAP (1 nM)” value in experiment [4] is reported as “did not suppress CREB phosphorylation by PACAP (1 nM)”. Besides, the “suppression of cold allodynia by oxaliplatin” value in experiment [5] is “suppressed cold allodynia by oxaliplatin significantly over 4 to 5 hours”. The “suppression of PACAP-induced spontaneous pain-like behavior” value in experiment [6] (10 pmol) is listed as “suppressed the PACAP response significantly”. In experiment [6] (100 pmol), the “suppression of PACAP-induced spontaneous pain-like behavior” value was “suppressed the PACAP response significantly”. Besides, in experiment [7], the analgesic effect result was “have analgesic effect”. Besides, in experiment [8], the “suppression of long-term mechanical allodynia induced by PACAP” value is on record as “strongly suppressed”.
